Results as given in publication PMC12254266, “Multicolored sequential resonance energy transfer for detection of simultaneous ligand binding at G protein-coupled receptors” (Nature Communications, 2025).
Where “and” joins values, the source holds several entries; their conditions need not be identical. Equal entries are not always repeated.

How the values were obtained:
FFA1 = FFA1 (Homo sapiens, UniProt O14842); experiment: Ca2+ mobilisation (Fura2) in Flp-In T-REx 293 cells expressing Nluc-FFA1, FFA1-Nluc or untagged FFA1; type: cell-based; set-up: expressed in transfected cells; conditions: for pEC50: Ca2+ data, mean±SEM; for pEC50 / EMax: NR = No response; for EMax: percentage of response to 10 μM T360; for Ca2+ Response as a % of T360 Response: single technical replicates
Experimental: Nluc-FFA1, FFA1-Nluc or untagged FFA1 Flp-In T-REx 293 cells were plated at 50,000 cells per well in poly-D-lysine coated black clear bottom 96-well plates. Cells were then cultured for 24 h until reaching confluency before culture medium was replaced with medium containing 100 ng/mL of doxycycline to induce receptor expression. Cells were cultured for a further 24 h before the assay. On the day of the assay culture medium was removed and replaced with medium containing 3 μM Fura2-AM Ca^2+ dye. […] Fura2 fluorescent emission at 520 nm following excitation with each of 340 and 380 nm was measured in regular intervals both before and after adding test compounds for a total of 90 s per well. Calcium responses were determined by taking the peak 340/380 ratio after first subtracting the ratios obtained prior to addition of test compound.

FFA1-Nluc = FFA1-Nluc (Homo sapiens, UniProt O14842); experiment: DISCo-BRET (endpoint, spectra scan, kinetics) with TUG-2591 and TUG-2597 at C terminal Nluc tagged FFA1; type: binding; set-up: expressed in transfected cells; conditions: for Specific BRET (690/540), % of control: Figure 4Aiii; for Specific BRET (690/540), % of control / Specific BRET (540/450), % of control: single replicate values (technical duplicate); for Specific BRET (540/450), % of control: Figure 4Biii
Experimental: Nluc-FFA1 or FFA1-Nluc Flp-In T-REx 293 cells were plated at 50,000 cells per well in poly-D-lysine coated white 96-well plates. Cells were cultured for 24 h in the plate before medium was replaced with medium containing 100 ng/mL of doxycycline to induce receptor expression. After culturing for a further 24 h, culture medium was removed, cells washed with HBSS and incubated in HBSS for 30 min. For all DISCo-BRET formats Nano-Glo substrate was then added at a 1:800 final dilution and cells incubated for 10 min. Following substrate addition experimental set up different among the three formats: endpoint, spectra scan, and kinetics.
For endpoint experiments all fluorescent and unlabelled ligands were added to the cells and incubated for 5 min at 37 °C. Luminescent emission was then measured using a CLARIOstar microplate reader with monochromator set at 450–60 nm (Nluc), 540−60 nm (NBD) and 690–100 nm (SulfoCy5). BRET ratios were then calculated as either SulfoCy5 emission divided by NBD emission, SulfoCy5 emission divided by Nluc emission, or NBD emission divided by Nluc emission.
For spectra scan experiments all indicated fluorescent and unlabelled ligands were added to the cells and cells incubated for 5 min at 37 °C. Luminescence emissions were then measured from each well of the plate from 440 nm – 740 nm with a 5 nm resolution using a CLARIOstar microplate. Luminescent emission spectra were then normalised as a percentage of the maximal Nluc emission peak ( ~ 460 nm), then subtracted with the spectrum obtained in the presence of high concentrations of ligands competing for both binding sites to obtain specific BRET binding spectra.
In kinetic DISCo-BRET experiments plates were placed directly in a CLARIOstar plate reader set to 25 °C 10 min after Nano-Glo substrate addition. Luminescent measurements were then taken with three sequential measurements per well with the monochromator set to 450–60 nm (Nluc), 540 - 60 nm (NBD) and 690–100 nm (SulfoCy5) taken in 20 or 30 s intervals. After 5 min of background measurements, the plate reader was paused for the first indicated fluorescent ligand(s) addition, before immediately returning the plate to the reader to continue luminescence readings. After 5 min, the reader was again paused to add the second fluorescent ligand (association assays) or competing ligand(s) (dissociation assays), before immediately continuing the measurements for the indicated time. Non-specific control binding was obtained by adding the indicated competing ligand(s) 5 min prior to the addition of the first fluorescent ligand.

Chain of FFA1 (O14842 whole entry): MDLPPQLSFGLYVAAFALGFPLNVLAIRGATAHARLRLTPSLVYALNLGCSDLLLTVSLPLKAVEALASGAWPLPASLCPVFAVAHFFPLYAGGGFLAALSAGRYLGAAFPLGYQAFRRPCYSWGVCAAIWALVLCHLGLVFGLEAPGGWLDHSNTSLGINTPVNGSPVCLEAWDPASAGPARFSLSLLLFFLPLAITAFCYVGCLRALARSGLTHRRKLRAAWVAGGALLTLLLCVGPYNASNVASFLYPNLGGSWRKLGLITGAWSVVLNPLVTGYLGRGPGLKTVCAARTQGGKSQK
Chain of FFA1-Nluc (O14842 whole entry): as above

Row | Structure (SMILES) | pEC50 (FFA1) | EMax (FFA1) | Ca2+ Response as a % of T360 Response (FFA1; log[Ligand] -5.5) | Ca2+ Response as a % of T360 Response (FFA1; log[Ligand] -6) | Ca2+ Response as a % of T360 Response (FFA1; log[Ligand] -6.5) | Ca2+ Response as a % of T360 Response (FFA1; log[Ligand] -7) | Ca2+ Response as a % of T360 Response (FFA1; log[Ligand] -8) | Ca2+ Response as a % of T360 Response (FFA1; log[Ligand] -9) | further results
1 | COc1ccc(C(=O)N2CCC(CNC(=O)OC(C)(C)C)CC2)c(N2CCC(COc3cccc(C(CC(=O)O)C4CC4)c3)CC2)c1.O=C(O)C(F)(F)F (stereo not drawn) [TUG-2450] | 6.18±0.09 | 108±7% |  |  |  |  |  |  | 
2 | COc1ccc(C(=O)N(CCNC(=O)OC(C)(C)C)c2ccccc2)c(N2CCC(COc3cccc(C(CC(=O)O)C4CC4)c3)CC2)c1.Cl (stereo not drawn) [TUG-2455] | 6.63±0.10 | 103±12% |  |  |  |  |  |  | 
3 | COc1ccc(C(=O)N(CC(C)(C)C)c2cccc(C)n2)c(N2CCC(COc3cccc(C(CC(=O)NCCCNc4ccc([N+](=O)[O-])c5nonc45)C4CC4)c3)CC2)c1.O=C(O)C(F)(F)F (stereo not drawn) [TUG-2598] |  |  | 1.5741% and 1.0900% and 0.3918% and 0.5253% and 0.2798% and 0.0720% and 0.3603% and 1.4514% and 1.2937% | 0.7619% and 0.7231% and 2.0549% and 2.7546% and 3.4553% and 0.9789% and -0.3872% and -0.5141% and 0.0396% | 0.0902% and 2.5170% and 0.7188% and 6.6987% and 2.2005% and 0.1478% and -0.6706% and 0.0668% and 0.2619% | 0.1653% and 1.3781% and 1.4889% and 2.9024% and 3.7196% and 2.7339% and -0.5451% and -0.2430% and 0.9384% | 0.4880% and 2.3639% and 0.4031% and 3.7453% and 1.7322% and 2.3495% and 0.5137% and 0.8889% and 1.3866% | 4.5581% and 0.9272% and 0.1871% and 0.2081% and 3.1188% and 3.6549% and 0.3770% and -0.1948% and -0.1822% | activity in Ca2+ assays (FFA1; in words): loss of activity; Ca2+ Response as a % of T360 Response (FFA1; log[Ligand] -5): 7.1012% and 15.2717% and 1.6246% and 2.7551% and 3.0159% and 6.2735% and 0.8241% and 1.6284% and -0.5359%
4 | CCCN1C(=O)c2ccccc2[C@@H](C(=O)O)[C@@H]1c1ccc(OCc2cccc(-c3ccc(OCCOCCNC(=O)OC(C)(C)C)cc3C)c2)cc1 (racemic) [TUG-2744] |  |  |  |  |  |  |  |  | pIC50 DISCo-BRET SulfoCy5/NBD (FFA1-Nluc; 100 nM TUG-2591 and […] TUG-2597, one site model, NC = No competition): 6.2±0.07; Specific BRET (690/540), % of control (FFA1-Nluc; log[Ligand] -5): 39.83 % of control and 31.90 % of control and 49.72 % of control and 41.62 % of control and 42.27 % of control and 54.60 % of control and 24.29 % of control and 24.93 % of control; Specific BRET (540/450), % of control (FFA1-Nluc; log[Ligand] -5): 137.97 % of control and 140.19 % of control and 93.19 % of control and 74.76 % of control; Specific BRET (690/540), % of control (FFA1-Nluc; log[Ligand] -5.5): 37.03 % of control and 28.64 % of control and 34.65 % of control and 33.07 % of control and 31.01 % of control and 33.80 % of control and 21.95 % of control and 22.19 % of control; Specific BRET (540/450), % of control (FFA1-Nluc; log[Ligand] -5.5): 128.99 % of control and 129.28 % of control and 107.91 % of control and 104.11 % of control and 75.59 % of control and 66.37 % of control; Specific BRET (690/540), % of control (FFA1-Nluc; log[Ligand] -6): 54.48 % of control and 58.02 % of control and 68.62 % of control and 58.61 % of control and 60.18 % of control and 39.48 % of control and 47.55 % of control and 54.64 % of control; Specific BRET (540/450), % of control (FFA1-Nluc; log[Ligand] -6): 100.93 % of control and 117.25 % of control and 87.18 % of control and 77.69 % of control and 68.48 % of control and 67.29 % of control; Specific BRET (690/540), % of control (FFA1-Nluc; log[Ligand] -6.5): 81.72 % of control and 80.69 % of control and 83.13 % of control and 96.40 % of control and 81.56 % of control and 79.15 % of control and 75.55 % of control and 78.81 % of control; Specific BRET (540/450), % of control (FFA1-Nluc; log[Ligand] -6.5): 102.36 % of control and 114.39 % of control and 83.39 % of control and 83.86 % of control and 94.27 % of control and 96.38 % of control; Specific BRET (690/540), % of control (FFA1-Nluc; log[Ligand] -7): 91.79 % of control and 92.91 % of control and 97.64 % of control and 109.79 % of control and 98.51 % of control and 104.19 % of control and 93.40 % of control and 97.61 % of control; Specific BRET (540/450), % of control (FFA1-Nluc; log[Ligand] -7): 116.11 % of control and 107.80 % of control and 95.73 % of control and 91.61 % of control and 84.18 % of control and 85.41 % of control; Specific BRET (690/540), % of control (FFA1-Nluc; log[Ligand] -8): 103.08 % of control and 96.92 % of control and 107.31 % of control and 115.19 % of control and 106.98 % of control and 101.78 % of control and 103.46 % of control and 103.17 % of control; Specific BRET (540/450), % of control (FFA1-Nluc; log[Ligand] -8): 110.67 % of control and 105.51 % of control and 101.90 % of control and 100.00 % of control and 64.33 % of control and 77.86 % of control; Specific BRET (690/540), % of control (FFA1-Nluc; log[Ligand] -9): 95.62 % of control and 111.25 % of control and 100.79 % of control and 103.71 % of control and 132.11 % of control; Specific BRET (540/450), % of control (FFA1-Nluc; log[Ligand] -9): 110.95 % of control and 125.84 % of control and 113.61 % of control and 148.10 % of control and 60.11 % of control and 65.92 % of control; 'bottom' of the IC50 curve, DISCo-BRET SulfoCy5/NBD (FFA1-Nluc; percentage of binding obtained in the absence of competing ligand, 100 nM TUG-2591 and […] TUG-2597): 26%; pKi DISCo-BRET SulfoCy5/NBD (FFA1-Nluc; using Kd TUG-2591 57 nM): 6.6±0.07
5 | COc1ccc(C(=O)N2CCN(CCNC(=O)OC(C)(C)C)CC2)c(N2CCC(COc3cccc(C(CC(=O)O)C4CC4)c3)CC2)c1.Cl (stereo not drawn) [TUG-2458] | 5.38±0.09 | 133±5% |  |  |  |  |  |  | 
6 | COc1ccc(C(=O)N(CC(C)(C)CNc2ccc([N+](=O)[O-])c3nonc23)c2ccccc2)c(N2CCC(COc3cccc(C(CC(=O)O)C4CC4)c3)CC2)c1.O=C(O)C(F)(F)F (stereo not drawn) [TUG-2490] | 5.95±0.16 |  | 93.1455% and 77.9850% and 75.8107% and 96.4232% and 72.2793% and 68.6021% | 53.6775% and 46.6859% and 50.0991% and 72.4727% and 32.6717% and 50.6607% | 16.7030% and 15.2768% and 30.6910% and 52.9860% and 26.5604% and 17.0828% | -0.5150% and -0.6020% and 9.0880% and 4.0961% and 1.0500% and 13.2109% | -0.3253% and 0.1971% and 2.2527% and 3.6975% and -0.7574% and 0.7574% | 3.6767% and 1.4233% and -0.8955% and -4.2309% and 0.8739% and -0.0879% | 
7 | COc1ccc(C(=O)N(CC(C)(C)CNC(=O)OC(C)(C)C)c2ccccc2)c(N2CCC(COc3cccc(C(CC(=O)O)C4CC4)c3)CC2)c1.O=C(O)C(F)(F)F (stereo not drawn) [TUG-2467] | 6.78±0.02 | 124±9% |  |  |  |  |  |  | 
8 | COc1ccc(C(=O)NCC(C)(C)CNc2ccc([N+](=O)[O-])c3nonc23)c(N2CCC(COc3cccc(C(CC(=O)O)C4CC4)c3)CC2)c1.O=C(O)C(F)(F)F (stereo not drawn) [TUG-2489] | 5.29±0.04 |  | 75.8584% and 55.2490% and 64.4948% and 77.9746% and 61.7732% and 62.6510% | 11.4043% and 15.1652% and 19.0434% and 4.1691% and 0.1177% and 9.7037% | 0.7033% and -0.7918% and -3.1732% and -6.5594% and 0.0827% and 3.4744% | -3.1258% and 4.2395% and 1.6831% and -3.2821% and -0.2376% and 1.2224% | -0.4995% and 5.1700% and -1.2657% and 6.6097% and 0.3774% and -0.3774% | 0.4589% and 3.5934% and -2.5884% and -5.3677% and 0.8677% and 2.5453% | Ca2+ Response as a % of T360 Response (FFA1; log[Ligand] -5): 102.5277% and 96.3666% and 102.3411% and 80.8186% and 76.8959%
